Laboratory results: patent US20110190392A1, “Polysaccharide Based Antimicrobial Formulations” (priority 2010, published 2011)

Experiments:
Format in all cases: cell-based
Ad-5 = experiment: Antiviral log reduction (Table 2B)
[1] = test system: Acinetobacter baumanii ATCC 19606; experiment: MBC of NVC-422 (Table 2A); settings: Acinetobacter baumannii, ATCC19606
[2] = test system: Enterococcus faecium [VRE] ATCC 51559; experiment: MBC of NVC-422 (Table 2A)
Influenza A = experiment: Antiviral log reduction (Table 2B)
[3] = test system: Candida albicans ATCC 10231; experiment: MBC of NVC-422 (Table 2A); settings: ATCC10231
[4] = test system: Serratia marcescens ATCC 13880; experiment: MBC of NVC-422 (Table 2A); settings: ATCC13880
[5] = test system: Escherichia coli ATCC 25922; experiment: MBC of NVC-422 (Table 2A); settings: ATCC25922
[6] = test system: Enterococcus faecalis ATCC 29212; experiment: MBC of NVC-422 (Table 2A); settings: ATCC29212
[7] = test system: Staphylococcus aureus [MRSA] ATCC 33591; experiment: MBC of NVC-422 (Table 2A)
[8] = test system: Klebsiella pneumoniae ATCC 10031; experiment: MBC of NVC-422 (Table 2A); settings: ATCC10031
Rhinovirus-39 = experiment: Antiviral log reduction (Table 2B)
[9] = test system: Haemophilus influenzae ATCC 49144; experiment: MBC of NVC-422 (Table 2A); settings: ATCC49144
[10] = test system: Staphylococcus hominis ATCC 27844; experiment: MBC of NVC-422 (Table 2A); settings: ATCC27844
[11] = test system: Enterobacter aerogenes ATCC 51697; experiment: MBC of NVC-422 (Table 2A); settings: Klebsiella aerogenes, ATCC51697
[12] = test system: Pseudomonas aeruginosa ATCC 27853; experiment: MBC of NVC-422 (Table 2A); settings: ATCC27853
[13] = test system: Staphylococcus epidermidis ATCC 12228; experiment: MBC of NVC-422 (Table 2A); settings: ATCC12228
[14] = test system: Acinetobacter calcoaceticus ATCC 51432; experiment: MBC of NVC-422 (Table 2A); settings: ATCC51432
[15] = test system: Staphylococcus aureus ATCC 29213; experiment: MBC of NVC-422 (Table 2A); settings: ATCC29213
[16] = test system: Proteus mirabilis ATCC 29245; experiment: MBC of NVC-422 (Table 2A); settings: ATCC29245
[17] = test system: Candida glabrata ATCC 90030; experiment: MBC of NVC-422 (Table 2A); settings: Nakaseomyces glabratus, ATCC90030
[18] = test system: Staphylococcus aureus ATCC 6358; experiment: MBC of NVC-422 (Table 2A); settings: ATCC6358
[19] = test system: Serratia marcescens ATCC 14756; experiment: MBC of NVC-422 (Table 2A); settings: ATCC14756
[20] = test system: Staphylococcus sciuri ATCC 49575; experiment: MBC of NVC-422 (Table 2A); settings: Mammaliicoccus sciuri, ATCC49575
HSV-1 = experiment: Antiviral log reduction (Table 2B)

For `Nc1ccn(C[C@@H](CO)OCP(=O)(O)O)c(=O)n1` [Cidofovir, reference compound], the “Log Reduction” value (Ad-5; (Ad5/A549 control)/Cidofovir, column 0.001%) was 0 and the “Log Reduction” value (Ad-5; (Ad5/A549 control)/Cidofovir, column 0.01%) was 0.

`CC(C)(CS(=O)(=O)O)N(Cl)Cl` [NVC-422, N,N-dichloro-2,2-dimethyltaurine] was tested, and the MBC [1] was 4 µg/mL, the MBC [2] was 0.5 µg/mL and the “Log Reduction” value (Ad-5; Ad-5 + 10% tears, concentration of NVC-422 0.001%) was 1.0. The “Log Reduction” value (Ad-5; Ad-5 + 10% tears, concentration of NVC-422 0.01%) was 1.7, the “Log Reduction” value (Ad-5; Ad-5 + 10% tears, concentration of NVC-422 0.1%) was >3.8 and the “Log Reduction” value (Ad-5; Ad-5, concentration of NVC-422 0.001%) was 2.8. For the same compound, the “Log Reduction” value (Ad-5; Ad-5, concentration of NVC-422 0.01%) was 4.3, the “Log Reduction” value (Ad-5; Ad-5, concentration of NVC-422 0.1%) was >4.3 and the “Log Reduction” value (Influenza A; concentration of NVC-422 0.01%) was 0.3. For the same compound, the “Log Reduction” value (Influenza A; concentration of NVC-422 0.1%) was 1.0, the “Log Reduction” value (Influenza A; concentration of NVC-422 1.0%) was >3.8 and the MBC [3] was 32 µg/mL. For the same compound, the MBC [4] was 1 µg/mL, the MBC [5] was 2 µg/mL and the MBC [6] was 0.5 µg/mL. The MBC [7] was 4 µg/mL, the MBC [8] was 0.25 µg/mL and the “Log Reduction” value (Rhinovirus-39; concentration of NVC-422 0.01%) was 1.7. For the same compound, the “Log Reduction” value (Rhinovirus-39; concentration of NVC-422 0.1%) was >1.5, the MBC [9] was 0.5 µg/mL and the MBC [10] was 4 µg/mL. For the same compound, the MBC [11] was 0.5 µg/mL, the MBC [12] was 1 µg/mL and the MBC [13] was 0.25 µg/mL. It also gave an MBC [14] of 2 µg/mL, an MBC [15] of 2 µg/mL and an MBC [16] of 1 µg/mL. It also gave an MBC [17] of 16 µg/mL, an MBC [18] of 2 µg/mL and an MBC [19] of 2 µg/mL. The MBC [20] was 0.12 µg/mL, the “Log Reduction” value (HSV-1; HSV-1 + 10% tears, concentration of NVC-422 0.001%) was 4.5 and the “Log Reduction” value (HSV-1; HSV-1 + 10% tears, concentration of NVC-422 0.01%) was >4.5. For the same compound, the “Log Reduction” value (HSV-1; HSV-1, concentration of NVC-422 0.001%) was >4.5 and the “Log Reduction” value (HSV-1; HSV-1, concentration of NVC-422 0.01%) was >4.5.
